Results: patent US20230339952A1, “MACROCYCLIC HETEROCYCLES AND USES THEREOF” (Kumquat Biosciences Inc., priority 2022, published 2023)
Where two headings read alike, the source gives them in different places.

What was measured:
[1] = system: MIA PaCa-2 cells (K-Ras G12C); experiment: Ras-SOS cellular growth inhibition assay (CellTiter-Glo); settings: Homo sapiens, MIA PaCa-2, 120 h, read-out: IC50 in inhibiting MIA PaCa-2 cell growth
Description: A CellTiter-Glo (CTG) luminescent based assay (Promega) is used to assess growth of the cells, as a measurement of the ability of the compounds herein to inhibit Ras signaling in the cells. […] The day after plating, cells are treated with a dilution series (e.g., a 9 point 3-fold dilution series) of the compounds herein (e.g., approximately 125 μL final volume per well). Cell viability can be monitored (e.g., approximately 5 days later) according to the manufacturer's recommended instructions, where the CellTiter-Glo reagent is added (e.g., approximately 65 μL), vigorously mixed, covered, and placed on a plate shaker (e.g., approximately for 20 min) to ensure sufficient cell lysis prior to assessment of luminescent signal. The IC50 values are determined using the four-parameter fit. The resulting IC50 value is a measurement of the ability of the compounds herein to reduce cell growth of Ras-driven cells as representative tumor cells.

[2] = system: NCI-H1975 (ATCC CRL-5908) cell line comprising an EGFR T790M L858R double mutation; experiment: EGFR-SOS cellular inhibition assay (CellTiter-Glo cell proliferation); assay type: cell-based; settings: Homo sapiens
Description: A CellTiter-Glo (CTG) luminescent based assay (Promega) is used to assess growth of the cells, as a measurement of the ability of the compounds herein to inhibit EGFR signaling in the cells. […] The day after plating, cells are treated with a dilution series (e.g., a 9 point 3-fold dilution series) of the compounds herein (e.g., approximately 125 μL final volume per well).

[3] = molecular target: SOS1 (Homo sapiens (Human), UniProt Q07889); experiment: Ras-SOS interaction assay (HTRF), K-Ras G13D utilized; assay type: binding; settings: K-Ras G13D
[4] = 120 h, NCI-H1975 cell proliferation, approximately 5 days, read-out: H1975 IC50
[5] = NCI-H1975, EGFR T790M L858R double mutation, read-out: IC50 in inhibiting growth of NCI-H1975 cell line
[6] = read-out: IC50 value against SOS1

SOS1, sequence (Q07889 564-1049): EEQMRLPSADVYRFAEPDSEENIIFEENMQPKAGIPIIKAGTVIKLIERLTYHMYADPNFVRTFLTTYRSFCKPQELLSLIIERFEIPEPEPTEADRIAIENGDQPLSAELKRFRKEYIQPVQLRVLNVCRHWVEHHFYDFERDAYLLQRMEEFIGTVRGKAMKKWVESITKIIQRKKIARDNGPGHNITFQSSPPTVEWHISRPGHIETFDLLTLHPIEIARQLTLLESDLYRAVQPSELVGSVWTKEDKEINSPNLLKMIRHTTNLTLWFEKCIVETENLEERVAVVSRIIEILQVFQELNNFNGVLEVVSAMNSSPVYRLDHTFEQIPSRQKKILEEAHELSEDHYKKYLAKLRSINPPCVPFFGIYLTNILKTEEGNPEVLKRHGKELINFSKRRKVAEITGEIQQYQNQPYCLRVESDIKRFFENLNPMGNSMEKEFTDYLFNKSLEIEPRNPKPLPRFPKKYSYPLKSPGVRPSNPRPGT

| IC50 [1] | IC50 [2, 4] | IC50 [2, 5] | IC50 [3, 6] | IC50 ([3]; read-out: SOS1 IC50) | SMILES |
| --- | --- | --- | --- | --- | --- |
| < 1 µM | < 1 µM | < 0.5 µM | < 0.05 µM | < 0.1 µM | Cc1nc2c3cc(C4CCS(=O)(=O)CC4)c(=O)n(c3n1)CCCC/C=C\CN1CCC(CC1)C(F)(F)c1cccc(c1)[C@@H](C)N2 [Compound 174, (4R,Z)-6^6-(1,1-dioxidotetrahydro-2H-thiopyran-4-yl)-2,2-difluoro-6^2,4-dimethyl-6^7,6^8-dihydro-5-aza-6 (4,8)-pyrido[2,3-d]pyrimidina-1(4,1)-piperidina-3(1,3)-benzenacyclotridecaphan-11-en-6^7-one] |
| < 1 µM | < 1 µM | < 0.5 µM | < 0.05 µM | < 0.1 µM | Cc1nc2c3cc(C4CCS(=O)(=O)CC4)c(=O)n(c3n1)CCCCCCCN1CCC(CC1)C(F)(F)c1cccc(c1)[C@@H](C)N2 [Compound 173, (4R)-6^6-(1,1-dioxidotetrahydro-2H-thiopyran-4-yl)-2,2-difluoro-6^2,4-dimethyl-6^7,6^8-dihydro-5-aza-6(4,8)-pyrido[2,3-d]pyrimidina-1(4,1)-piperidina-3(1,3)-benzenacyclotridecaphan-6^7-one] |
| < 1 µM | < 1 µM | < 0.5 µM | < 0.05 µM | < 0.1 µM | Cc1nc2c3cc(C4(C#N)CC4)c(=O)n(c3n1)CCCCC/C=C\CN1CCC(CC1)C(F)(F)c1cccc(c1)[C@@H](C)N2 [Compound 171, 1-((4R,Z)-2,2-difluoro-6^2,4-dimethyl-6^7-oxo-6^7,6^8-dihydro-5-aza-6(4,8)-pyrido[2,3-d]pyrimidina-1(4,1)-piperidina-3(1,3)-benzenacyclotetradecaphan-12-en-6^6-yl)cyclopropane-1-carbonitrile] |
| < 1 µM | < 1 µM | < 0.5 µM | < 0.05 µM | < 0.1 µM | C[C@H]1Nc2ncnc3c2cc(C2(C#N)CC2)c(=O)n3CCCCC/C=C\CN2CCC(CC2)C(F)(F)c2cccc1c2 [Compound 120, 1-((4R,Z)-2,2-difluoro-4-methyl-6^7-oxo-6^7,6^8-dihydro-5-aza-6(4,8)-pyrido[2,3-d]pyrimidina-1(4,1)-piperidina-3(1,3)-benzenacyclotetradecaphan-12-en-6^6-yl)cyclopropane-1-carbonitrile] |
| < 1 µM | < 1 µM | < 0.5 µM | < 0.05 µM | < 0.1 µM | Cc1nc2c3cc(C4(C#N)CC4)c(=O)n(c3n1)CCC/C=C\CN1CCC(CC1)C(F)(F)c1cccc(c1F)[C@@H](C)N2 [Compound 170, 1-((4R,Z)-3^2,2,2-trifluoro-6^2,4-dimethyl-6^7-oxo-6^7,6^8-dihydro-5-aza-6(4,8)-pyrido[2,3-d]pyrimidina-1(4,1)-piperidina-3(1,3)-benzenacyclododecaphan-10-en-6^6-yl)cyclopropane-1-carbonitrile] |
| < 1 µM | < 1 µM | < 0.5 µM | < 0.05 µM | < 0.1 µM | Cc1nc2c3cc(C4(C#N)CC4)c(=O)n(c3n1)CCCCCCCN1CCC(CC1)C(F)(F)c1cccc(c1F)[C@@H](C)N2 [Compound 167, 1-((4R)-3^2,2,2-trifluoro-6^2,4-dimethyl-6^7-oxo-6^7,6^8-dihydro-5-aza-6(4,8)-pyrido[2,3-d]pyrimidina-1(4,1)-piperidina-3(1,3)-benzenacyclotridecaphane-6^6-yl)cyclopropane-1-carbonitrile] |
| < 1 µM | < 1 µM | < 0.5 µM |  |  | C[C@H]1Nc2ncnc3c2cc(C2(C#N)CC2)c(=O)n3CCCCCCCCN2CCC(CC2)C(F)(F)c2cccc1c2 [Compound 54, 1-((4R)-2,2-difluoro-4-methyl-6^7-oxo-6^7,6^8-dihydro-5-aza-6(4,8)-pyrido[2,3-d]pyrimidina-1(4,1)-piperidina-3(1,3)-benzenacyclotetradecaphane-6^6-yl)cyclopropane-1-carbonitrile] |
|  | < 1 µM |  |  | < 0.1 µM | C[C@H]1Nc2ncnc3c2cc(N2CCOCC2)c(=O)n3CCCCCCCN2CCC(CC2)C(F)(F)c2cccc1c2 [Compound 64, (4R)-2,2-difluoro-4-methyl-6^6-morpholino-6^7,6^8-dihydro-5-aza-6(4,8)-pyrido[2,3-d]pyrimidina-1(4,1)-piperidina-3(1,3)-benzenacyclotridecaphan-6^7-one] |
|  | < 1 µM |  |  | < 0.1 µM | C[C@H]1Nc2ncnc3c2cc(C2CCS(=O)(=O)CC2)c(=O)n3CCCC/C=C/CN2CCC(CC2(C)C)C(F)(F)c2cccc1c2 (stereo partly drawn) [Compound 74, (4R,E)-6^6-(1,1-dioxidotetrahydro-2H-thiopyran-4-yl)-2,2-difluoro-1^2,1^2,4-trimethyl-6^7,6^8-dihydro-5-aza-6(4,8)-pyrido[2,3-d]pyrimidina-1(4,1)-piperidina-3(1,3)-benzenacyclotridecaphan-11-en-6^7-one] |
|  | < 1 µM |  |  | < 0.1 µM | C[C@H]1Nc2ncnc3c2cc(C2CCS(=O)(=O)CC2)c(=O)n3CC(=O)N(C)CCCCN2CCC(CC2)C(F)(F)c2cccc1c2 [Compound 46, (4R)-6^6-(1,1-dioxidotetrahydro-2H-thiopyran-4-yl)-2,2-difluoro-4,9-dimethyl-6^7,6^8-dihydro-5,9-diaza-6(4,8)-pyrido[2,3-d]pyrimidina-1(4,1)-piperidina-3(1,3)-benzenacyclotridecaphane-6^7,8-dione] |
|  | < 1 µM |  |  | < 0.1 µM | C[C@H]1Nc2ncnc3c2cc(C2(C#N)CC2)c(=O)n3CCCCNC(=O)[C@H](C)N2CCC(CC2)C(F)(F)c2cccc1c2 [Compound 153, 1-((4R,13S)-2,2-difluoro-4,13-dimethyl-6^7,12-dioxo-6^7,6^8-dihydro-5,11-diaza-6(4,8)-pyrido[2,3-d]pyrimidina-1(4,1)-piperidina-3(1,3)-benzenacyclotridecaphane-6^6-yl)cyclopropane-1-carbonitrile] |
|  | < 1 µM |  |  | < 0.1 µM | C[C@H]1Nc2ncnc3c2cc(C2(C#N)CC2)c(=O)n3CCCCCCN2CCC(CC2)CC(F)(F)c2cccc1c2F [Compound 15, 1-((3R)-4^2,5,5-trifluoro-3-methyl-1^7-oxo-1^7,1^8-dihydro-2-aza-1(4,8)-pyrido[2,3-d]pyrimidina-7(4,1)-piperidina-4(1,3)-benzenacyclotridecaphane-1^6-yl)cyclopropane-1-carbonitrile] |
|  | < 1 µM |  |  | < 0.1 µM | C[C@H]1Nc2ncnc3c2cc(C2CCS(=O)(=O)CC2)c(=O)n3CCCCCCCN2CCC(CC2)C(F)(F)c2cccc1c2F [Compound 125, (4R)-6^6-(1,1-dioxidotetrahydro-2H-thiopyran-4-yl)-3^2,2,2-trifluoro-4-methyl-6^7,6^8-dihydro-5-aza-6(4,8)-pyrido[2,3-d]pyrimidina-1(4,1)-piperidina-3(1,3)-benzenacyclotridecaphan-6^7-one] |
|  | < 1 µM |  |  | < 0.1 µM | Cc1nc2c3cc(C4(C#N)CC4)c(=O)n(c3n1)CCCCCN1CCC(CC1)C(F)(F)c1cccc(c1)[C@@H](C)N2 [Compound 169, 1-((4R)-2,2-difluoro-6^2,4-dimethyl-6^7-oxo-6^7,6^8-dihydro-5-aza-6(4,8)-pyrido[2,3-d]pyrimidina-1(4,1)-piperidina-3(1,3)-benzenacycloundecaphane-6^6-yl)cyclopropane-1-carbonitrile] |
|  | < 1 µM |  |  | < 0.1 µM | C[C@H]1Nc2ncnc3c2cc(C2CCS(=O)(=O)CC2)c(=O)n3CCCCC[C@H](O)CN2CCC(CC2)C(F)(F)c2cccc1c2 [Compound 86, (4R,12S)-6^6-(1,1-dioxidotetrahydro-2H-thiopyran-4-yl)-2,2-difluoro-12-hydroxy-4-methyl-6^7,6^8-dihydro-5-aza-6(4,8)-pyrido[2,3-d]pyrimidina-1(4,1)-piperidina-3(1,3)-benzenacyclotridecaphan-6^7-one] |
|  | < 1 µM |  |  | < 0.1 µM | CC(C)N1CCN(c2cc3c4ncnc3n(c2=O)CCCCCN2CCC(CC2)CCC(F)(F)c2cccc(c2)[C@@H](C)N4)CC1 [Compound 154, (3R)-5,5-difluoro-1^6-(4-isopropylpiperazin-1-yl)-3-methyl-1^7,1^8-dihydro-2-aza-1(4,8)-pyrido[2,3-d]pyrimidina-8(4,1)-piperidina-4(1,3)-benzenacyclotridecaphan-1^7-one] |
|  | < 1 µM |  |  | < 0.1 µM | C[C@H]1Nc2ncnc3c2cc(C2(C#N)CC2)c(=O)n3CCCNC(=O)CCN2CCC(CC2)C(F)(F)c2cccc1c2 [Compound 144, 1-((4R)-2,2-difluoro-4-methyl-6^7,11-dioxo-6^7,6^8-dihydro-5,10-diaza-6(4,8)-pyrido[2,3-d]pyrimidina-1(4,1)-piperidina-3(1,3)-benzenacyclotridecaphane-6^6-yl)cyclopropane-1-carbonitrile] |
|  | < 1 µM |  |  | < 0.1 µM | C[C@H]1Nc2ncnc3c2cc(N2CCN(C4CCN(C)CC4)CC2)c(=O)n3CCCCCCCN2CCC(CC2)C(F)(F)c2cccc1c2F [Compound 178, (4R)-3^2,2,2-trifluoro-4-methyl-6^6-(4-(1-methylpiperidin-4-yl)piperazin-1-yl)-6^7,6^8-dihydro-5-aza-6(4,8)-pyrido[2,3-d]pyrimidina-1(4,1)-piperidina-3(1,3)-benzenacyclotridecaphan-6^7-one] |
|  | 1 to 10 µM |  |  | 0.1 to 5 µM | Cc1nc2c3cc(C4(C#N)CC4)c(=O)n(c3n1)CCCCCCOCC(F)(F)c1cccc(c1F)[C@@H](C)N2 [Compound 130, 1-((3R)-4^2,5,5-trifluoro-1^2,3-dimethyl-1^7-oxo-1^7,1^8-dihydro-7-oxa-2-aza-1(4,8)-pyrido[2,3-d]pyrimidina-4(1,3)-benzenacyclotridecaphane-1^6-yl)cyclopropane-1-carbonitrile] |
